From patent US5639745A, “Fused-bicyclic lactams as interleukin-1β converting enzyme inhibitors” (Sanofi, priority 1995, dated 1997)

Experiments:
[1] = tested on: mature IL-1β release from human monocytes; test: human monocyte pulse chase assay, inhibition of release of mature IL-1β (called In Vivo Assay); format: cell-based; conditions: human monocytes stimulated with fixed S. aureus
Description: In vivo inhibition (IC50) was determined as follows:
Human monocytes were isolated from heparinized leukopheresis units obtained through Biological Specialty Corporation (Lansdale, Pa.). Monocytes were purified by Ficoll-Hupaque (Pharmacia Fine Chemicals, Piscataway, N.J.) gradient centrifugation and more than 95% pure monocyte populations obtained by centrifugal elutriation. The assay was performed on duplicate samples of freshly isolated human monocytes, cultured in suspension at 37° C. and rotated gently in conical bottom polypropylene tubes (Sardstedt Inc., Princeton, N.J.). Human monocytes at a concentration of 5×10^6 cells/mL were resuspended in 1 mL of RPMI 1640 (a common tissue buffer from M. A. Bioproducts, Walkersville, Md.) containing 1% fetal calf serum (FCS) (HyClone, Logan, Utah) and 50 μg/mL gentamycin (Gibco, Grand Island, N.Y.). The cells were treated either with a compound of the invention (i.e. test compound) or with a non-inhibitor (control compound, typically 0.03% DMSO) for 15 minutes and then activated with 0.01% fixed Staphylococcus aureus (The Enzyme Center, Malden, Mass.) for 1 hour. The cells were then centrifuged and resuspended in 1 mL of cysteine, methionine-free RPMI media containing 1% dialyzed FCS (Hyclone). The cells were pretreated with a test compound or control compound for 15 minutes after which 0.01% fixed S. aureus plus 100 μCi Tran 35-S label (ICN, Irvine, Calif.) was added and the cells incubated at 37° C. for 1 hour. After incubation, cells were centrifuged, washed once in phosphate buffer saline and resuspended in 1 mL RPMI containing 1% fetal calf serum. The cells were again pretreated with a test or control compound for 15 minutes and then 0.01% S. aureus for 2 hours. At the end of the incubation, cells were centrifuged and supernates saved for immunoprecipitation. Cells were washed once in phosphate buffer saline and then lysed in RIPA, a continuous cell media buffer containing 2 mM phenylmethylsulfonyl fluoride, 10 mM iodoacetate, 1 μg/mL pepstatin A, 1 μg/mL leupeptin and 0.5 TIU aprotinin.
For the immunoprecipitations, an equal volume of 1% dry milk in RIPA buffer plus 50 μL of resuspended protein A sepharose CL-4B (Pharmacia, Piscataway, N.Y.) was added to supernates and 1 mL of 4% dry milk containing protein A sepharose CL-4B to cell lysates and samples rotated for 30 minutes at 4° C. Beads were then centrifuged down, samples transferred to fresh tubes and incubated overnight with 40 μg rabbit anti-human IL-1β polyclonal antibody (Genzyme, Cambridge, Mass.). The IL-1β proteins were then precipitated with 70 μL protein A sepharose, resuspended in 60 μL SDS sample buffer and run on 15% SGD-PAGE gels. Autoradiography was performed on dried gels and the amount of radioactivity (counts per minute, cpm) quantitated using a Betascope 603 analyzer.
In the monocyte pulse chase assay, each test parameter was run in duplicate. Data was collected from the Beta Scope using a personal computer, then transferred to the VAX system for calculation of mean cpm and standard deviation of the mean. When test compounds were evaluated, the percent inhibition of release of mature IL-1β was calculated as follows:
100×[1-(cells treated with stimuli+test compound-unstimulated cells)/(cells treated with stimuli+control compound-unstimulated cells)]
These % inhibition values were then used to calculate IC50 value for each compound. Since the human monocyte pulse chase assay uses primary cells from different donors, each test compound was run in 2-3 separate experiments, using monocytes from 2-3 different donors.

ICE (IL-1β protease) = biological target: T1, ICE (IL-1β protease) (Homo sapiens, UniProt P29466); test: enzyme assay, second order rates of inactivation of ICE; format: biochemical; conditions: in vitro; read-out: kobs/[I] (IL-1β protease inhibition, second order rate of inactivation)
T1 sequence (P29466 120-297 limits assumed): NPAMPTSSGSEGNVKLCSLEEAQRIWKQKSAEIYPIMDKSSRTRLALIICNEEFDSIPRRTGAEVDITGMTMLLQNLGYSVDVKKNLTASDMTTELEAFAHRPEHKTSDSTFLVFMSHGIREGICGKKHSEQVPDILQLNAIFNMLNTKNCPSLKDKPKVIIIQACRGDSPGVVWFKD
T1 sequence (P29466 317-404 limits assumed): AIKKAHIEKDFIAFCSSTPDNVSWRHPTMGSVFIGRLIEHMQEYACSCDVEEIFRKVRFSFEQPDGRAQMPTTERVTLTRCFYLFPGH
Description: Second order rates of inactivation were obtained by using the enzyme assay described in Dolle, R. E.; et al., J. Med Chem. (1994), 37, 563. […] In the case of these reversible inhibitors, the in vitro assay was modified to obtain the reversible Ki * as follows: […]

IL-1 receptor = conditions: cited from earlier work

Row | IC50 [1] [µM] | kinact/KI (ICE (IL-1β protease)) [M⁻¹ s⁻¹] | Molecule | joint swelling and disease activity (IL-1 receptor; after three weeks of daily treatment, subcutaneous) | antiinflammatory activity (IL-1 receptor; patients with active rheumatoid arthritis, subcutaneous 20, 70 and 200 mg) | effectiveness by dosing frequency (IL-1 receptor; subcutaneous 20, 70 and 200 mg)
1 | < 10 | > 10000 | CC(C)COC(=O)N[C@H]1CCC(=O)N2CCC[C@@H](C(=O)N[C@@H](CC(=O)O)C(=O)COc3cc(C(F)(F)F)nn3-c3ccc(Cl)cc3)N2C1=O [Example 10] | – | – | –
2 | < 10 | > 10000 | CN(C)Cc1ccc(C(=O)N[C@H]2CCC(=O)N3CCC[C@@H](C(=O)N[C@@H](CC(=O)O)C(=O)COC(=O)c4c(Cl)cccc4Cl)N3C2=O)cc1 [Example 11] | – | – | –
3 | < 10 | > 10000 | O=C(O)CCc1ccc(C(=O)N[C@H]2CCC(=O)N3CCC[C@@H](C(=O)N[C@@H](CC(=O)O)C(=O)COc4cc(C(F)(F)F)nn4-c4ccc(Cl)cc4)N3C2=O)cc1 [Example 12] | – | – | –
4 | < 10 | > 10000 | O=C(O)C[C@H](NC(=O)[C@@H]1CCCN2C(=O)CC[C@H](NC(=O)c3ccc(CN4CCOCC4)cc3)C(=O)N12)C(=O)COC(=O)c1c(Cl)cccc1Cl [Example 13, [9-(4-(N-Morpholinomethyl)benzoylamino)octahydro-6,10-dioxo-6H-pyridazino[1 ,2a][1,2]diazepine-1-formoyl]-L-aspartic acid 2,6-dichlorobenzoyloxymethyl ketone] | – | – | –
5 | < 10 | > 10000 | CN1CCN(Cc2ccc(C(=O)N[C@H]3CCC(=O)N4CCC[C@@H](C(=O)N[C@@H](CC(=O)O)C(=O)COC(=O)c5c(Cl)cccc5Cl)N4C3=O)cc2)CC1 [Example 14, [9-(N-[4-(N-Methylpiperazino)methyl]benzoylamino)octahydro-6,10-dioxo-6H-pyridazino [1,2a][1,2]diazepine-1-formoyl]-L-aspartic acid 2,6-dichlorobenzoyloxymethyl ketone] | – | – | –
6 | < 10 | > 10000 | Cc1nccn1Cc1ccc(C(=O)N[C@H]2CCC(=O)N3CCC[C@@H](C(=O)N[C@@H](CC(=O)O)C(=O)COC(=O)c4c(Cl)cccc4Cl)N3C2=O)cc1 [Example 15, [9-(4-(N-(2-Methyl)imidazolylmethyl)benzoylamino)octahydro-6,10-dioxo-6H-pyridazino[1,2a][1,2]diazepine-1-formoyl]-L-aspartic acid 2,6-dichlorobenzoyloxymethyl ketone] | – | – | –
7 | < 10 | > 10000 | O=C(O)C[C@H](NC(=O)[C@@H]1CCCN2C(=O)CC[C@H](NC(=O)c3ccc4[nH]cnc4c3)C(=O)N12)C(=O)COC(=O)c1c(Cl)cccc1Cl [Example 16, [9-(5-Benzimidazoylamino)octahydro-6,10-dioxo-6H-pyridazino[1,2a][1,2]diazepine-1-formoyl]-L-aspartic acid 2,6-dichlorobenzoyloxymethyl ketone] | – | – | –
8 | < 10 | > 10000 | O=C(O)C[C@H](NC(=O)[C@@H]1CCCN2C(=O)CC[C@H](NC(=O)c3ccc4[nH]nnc4c3)C(=O)N12)C(=O)COC(=O)c1c(Cl)cccc1Cl [Example 17, [9-(5-Bentriazoylamino)octahydro-6,10-dioxo-6H-pyridazino[1,2a][1,2]diazepine-1-formoyl]-L-aspartic acid 2,6-dichlorobenzoyloxymethyl ketone] | – | – | –
9 | < 10 | > 10000 | CCOC(=O)n1nnc2cc(C(=O)N[C@H]3CCC(=O)N4CCC[C@@H](C(=O)N[C@@H](CC(=O)O)C(=O)COC(=O)c5c(Cl)cccc5Cl)N4C3=O)ccc21 [Example 18, [9-(N-Carboethoxy-5-bentriazoylamino)octahydro-6,10-dioxo-6H-pyridazino[1,2 a][1,2]diazepine-1-formoyl]-L-aspartic acid 2,6-dichlorobenzoyloxymethyl ketone] | – | – | –
10 | < 10 | > 10000 | CCOC(=O)n1cnc2cc(C(=O)N[C@H]3CCC(=O)N4CCC[C@@H](C(=O)N[C@@H](CC(=O)O)C(=O)COC(=O)c5c(Cl)cccc5Cl)N4C3=O)ccc21 [Example 19, [9-(N-Carboethoxy-5-benzimidazoylamino)octahydro-6,10-dioxo-6H-pyridazino[1 ,2a][1,2]diazepine-1-formoyl]-L-aspartic acid 2,6-dichlorobenzoyloxymethyl ketone] | – | – | –
11 | < 10 | > 10000 | O=C(O)CCCc1ccc(C(=O)N[C@H]2CCC(=O)N3CCC[C@@H](C(=O)N[C@@H](CC(=O)O)C(=O)COc4cc(C(F)(F)F)nn4-c4ccc(Cl)cc4)N3C2=O)cc1 [Example 20] | – | – | –
12 | < 10 | > 10000 | O=C(O)C[C@H](NC(=O)[C@@H]1CCCN2CCC[C@H](NC(=O)OCc3ccccc3)C(=O)N12)C(=O)COC(=O)c1c(Cl)cccc1Cl [Example 23] | – | – | –
13 | < 10 | > 10000 | O=C(O)C[C@H](NC(=O)[C@@H]1CCCN2C(=O)CC[C@H](NC(=O)OCc3ccccc3)C(=O)N12)C(=O)COc1cc(C(F)(F)F)nn1-c1ccc(Cl)cn1 [Example 24] | – | – | –
14 | < 10 | > 10000 | CN(C)Cc1ccc(C(=O)N[C@H]2CCC(=O)N3CCC[C@@H](C(=O)N[C@@H](CC(=O)O)C(=O)COc4cc(C(F)(F)F)nn4-c4ccccn4)N3C2=O)cc1 [Example 25] | – | – | –

The next lines start with the molecule.

Row | Molecule | IC50 [1] [µM] | kinact/KI (ICE (IL-1β protease)) [M⁻¹ s⁻¹] | joint swelling and disease activity (IL-1 receptor; after three weeks of daily treatment, subcutaneous) | antiinflammatory activity (IL-1 receptor; patients with active rheumatoid arthritis, subcutaneous 20, 70 and 200 mg) | effectiveness by dosing frequency (IL-1 receptor; subcutaneous 20, 70 and 200 mg)
15 | CN(C)Cc1ccc(C(=O)N[C@H]2CCC(=O)N3CCC[C@@H](C(=O)N[C@@H](CC(=O)O)C(=O)COc4cc(C(F)(F)F)nn4-c4ccc(Cl)cc4)N3C2=O)cc1 [Example 1] | < 10 | > 10000 | – | – | –
16 | O=C(O)C[C@H](NC(=O)[C@@H]1CCCN2C(=O)CC[C@H](NC(=O)OCc3ccccc3)C(=O)N12)C(=O)COC(=O)c1c(Cl)cccc1Cl [Example 3] | < 10 | > 10000 | – | – | –
17 | O=C(O)C[C@H](NC(=O)[C@@H]1CCCN2C(=O)CC[C@H](NC(=O)OCc3ccccc3)C(=O)N12)C(=O)COc1cc(C(F)(F)F)nn1-c1ccccc1 [Example 4] | < 10 | > 10000 | – | – | –
18 | O=C(O)C[C@H](NC(=O)[C@@H]1CCCN2C(=O)CC[C@H](NC(=O)OCc3ccccc3)C(=O)N12)C(=O)COc1cc(C(F)(F)F)nn1-c1ccc(Cl)cc1 [Example 5] | < 10 | > 10000 | – | – | –
19 | O=C(O)C[C@H](NC(=O)[C@@H]1CCCN2C(=O)CC[C@H](NC(=O)OCc3ccccc3)C(=O)N12)C(=O)COc1cc(C(F)(F)F)nn1-c1ccccn1 [Example 6] | < 10 | > 10000 | – | – | –
20 | O=C(O)C[C@H](NC(=O)[C@@H]1CCCN2C(=O)CC[C@H](NC(=O)c3ccccc3)C(=O)N12)C(=O)COc1cc(C(F)(F)F)nn1-c1ccc(Cl)cc1 [Example 7] | < 10 | > 10000 | – | – | –
21 | O=C(O)CSc1ccc(C(=O)N[C@H]2CCC(=O)N3CCC[C@@H](C(=O)N[C@@H](CC(=O)O)C(=O)COc4cc(C(F)(F)F)nn4-c4ccc(Cl)cc4)N3C2=O)cc1 [Example 8] | < 10 | > 10000 | – | – | –
22 | O=C(O)CCSc1ccc(C(=O)N[C@H]2CCC(=O)N3CCC[C@@H](C(=O)N[C@@H](CC(=O)O)C(=O)COc4cc(C(F)(F)F)nn4-c4ccc(Cl)cc4)N3C2=O)cc1 [Example 9] | < 10 | > 10000 | – | – | –
23 | Antril: The IL-1 receptor antagonist, Antril (Synergen) | – | – | decrease in joint swelling and less disease activity | significant antiinflammatory activity | most effective when taken daily
